The values below come from patent US5516777A, “Condensed pyrazole derivatives, and androgen inhibitor” (Otsuka Pharmaceutical Co., Ltd., priority 1992, dated 1996).

In data set [1] the target is T1, rat prostate androgen receptor (Rattus norvegicus, UniProt P15207).
T1 sequence (P15207 1-902): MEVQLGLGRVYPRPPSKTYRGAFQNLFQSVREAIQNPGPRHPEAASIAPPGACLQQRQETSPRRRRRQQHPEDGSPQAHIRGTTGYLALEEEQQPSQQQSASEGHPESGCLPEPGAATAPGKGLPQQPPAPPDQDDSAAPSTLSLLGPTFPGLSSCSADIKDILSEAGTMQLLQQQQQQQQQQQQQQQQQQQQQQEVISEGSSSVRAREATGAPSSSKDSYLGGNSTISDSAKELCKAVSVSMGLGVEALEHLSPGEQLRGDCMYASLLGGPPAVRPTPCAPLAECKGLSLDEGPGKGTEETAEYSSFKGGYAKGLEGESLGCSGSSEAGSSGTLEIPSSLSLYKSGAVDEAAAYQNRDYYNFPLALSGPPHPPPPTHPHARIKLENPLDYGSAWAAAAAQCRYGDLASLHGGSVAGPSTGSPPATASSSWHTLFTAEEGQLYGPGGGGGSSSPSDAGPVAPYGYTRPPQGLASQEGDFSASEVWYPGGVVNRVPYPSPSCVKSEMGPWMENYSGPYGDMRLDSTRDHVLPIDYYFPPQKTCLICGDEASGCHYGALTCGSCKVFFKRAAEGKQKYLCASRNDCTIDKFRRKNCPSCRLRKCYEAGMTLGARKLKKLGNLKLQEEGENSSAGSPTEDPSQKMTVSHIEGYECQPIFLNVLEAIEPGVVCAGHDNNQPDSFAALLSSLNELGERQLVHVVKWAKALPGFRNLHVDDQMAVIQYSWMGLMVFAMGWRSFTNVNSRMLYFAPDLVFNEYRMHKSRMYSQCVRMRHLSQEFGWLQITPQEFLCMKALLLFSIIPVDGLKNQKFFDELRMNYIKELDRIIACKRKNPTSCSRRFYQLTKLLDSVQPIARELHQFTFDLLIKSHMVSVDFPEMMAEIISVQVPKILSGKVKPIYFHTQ
The note with it: 1 nM ^3 H-mibolerone, 20 hours at 0° C., rat ventral prostate cytosol; read-out: Inhibitory activity on mibolerone specific binding [IC50 (M)].
Protocol: Assay of inhibitory activity to binding of ^3 H-mibolerone on rat prostate androgen receptor
(1) Preparation of Cytosol from Rat Prostate
The rats were killed 24 hours after castration, and the ventral prostate glands were removed, and was gently homogenized, with three volume of buffer solution A (1.5 mM EDTA, 2 mM dithiothreitol, 10 mM molybdate sodium, 10% by volume of glycerol, 10 mM NaF, 25 mM phosphate sodium, pH 7.2) on ice-water bath, in Polytron, and Potter type homogenizer. The obtained homogenate was filtrated through double gauze, and centrifuged at 105,000×g for 60 minutes at 4° C., and the supernatant was obtained as cytoplasm fraction.
(2) Measurement of Specific binding of ^3 H-mibolerone to Prostate Cytoplasm Androgen Receptor
To the cytoplasm fraction obtained in (1) was added ^3 H-mibolerone (87.0 Ci/millimol), so that a final concentration is adjusted to 1 nM, and at the same time, in order to block binding of ^3 H-mibolerone to progestin receptor, triamsinolone acetonide was added to a final concentration of 5 μM, and the final volume was adjusted to 0.4 ml with buffer solution A, and the reaction mixture was incubated for 20 hours at 0° C. After incubation, 0.5 ml of 60% hydroxylapatite slurry (washed and equilibrate with a buffer solution B: 10 mM NaH2 PO4, 20 mM tris-hydrochloric acid, pH 7.2) was added, and incubated for 10 minutes at 0° C., the solution was transferred onto a glass fiber filter, and washed five times with 5 ml portions of buffer solution B containing 0.1% (weight/volume) of Triton X-100, to remove free ^3 H-mibolerone. This glass fiber was transferred into vial, and 10 ml of aquasol- 2 was added, and the radioactivity was measured, and the total binding amount of ^3 H-mibolerone on prostate cytoplasm androgen receptor was determined.
The nonspecific binding amount was determined similarly by adding an unlabeled 5α-DHT in the reaction solution to a final concentration of 1 μM. The difference between the total binding amount and nonspecific binding amount was determined as the specific binding amount on the androgen receptor.
(3) Inhibitory Activity of Sample Compounds on ^3 H-mibolerone Specific Binding
The various concentrations of compounds obtained in the experiments were added simultaneously with ^3 H-mibolerone to incubate same as in (2), and the specific binding amount of ^3 H-mibolerone on androgen receptor was determined. Comparing this value with the value obtained in (2), the IC50 value of inhibitory activity of the compounds on ^3 H-mibolerone specific binding was determined.

Data set [2] can be described thus: In vitro drug metabolism in rat liver extract. The data set is classed as in vitro ADME, male Wistar rats. The note with it: pH 7.4, 37° C.; for remaining at 5 min / remaining at 0.25 h / remaining at 0.5 h / remaining at 1 h: rat liver extract; for remaining at 5 min: read-out: Residual amount of test compound, 5 min.; for remaining at 0.25 h: 15 min., read-out: Residual amount of test compound, 15 min.; for remaining at 0.5 h: 30 min., read-out: Residual amount of test compound, 30 min.; for remaining at 1 h: 60 min., read-out: Residual amount of test compound, 60 min.; for half-life: half-life in the rat liver extract, read-out: Half-time period. The method, then:
2. In vitro drug metabolism in rat liver extract
The resistance of the compound against metabolic degradation by rat liver extract was investigated.
The male Wistar rats (weighing about 200 g) were used after fasting for 24 hours. The rat was sacrificed under ether anesthesia, and the livers were removed and were placed onto the ice.
The liver was minced with scissors under ice-cooling, and homogenized in the presence of 4 volumes of 1.15% KCl-0.1M phosphate buffer (pH 7.4) with a Potter type homogenizer. The homogenates were centrifuged at 9,000×g for 10 minutes at 4° C., and the supernatant filtered through the cheese-cloth was used as an enzyme solution.
The constitution of the reaction mixture was shown in below. 0.1M Buffer was sufficiently bubbled in 95% O2 -5% CO2 gas before use.
Glucose 6-phosphate (60.8 mg.ml)
Nicotineamide (9.16 mg/ml)
The tested samples were dissolved in dimethyl sulfoxide. MgCl2 ·6H2 O was dissolved in a distilled water, and all other reagents were dissolved in 0.1M phosphate buffer. The reaction was initiated by adding enzyme solution, and shaked at 37° C. with 120 cycles/minutes in Spitz test tubes with stoppers. The reaction was stopped by adding methanol after 5, 15, 30 and 60 minutes.
After termination of the reaction, samples were mixed by using of a Vortex mixer, and centrifuged at 3,000 rpm for 10 minutes. The supernatant was applied to a high-performance liquid chromatography of which conditons are shown in below. A residual amount of the mother compound was determined at certain time intervals, whererby half-life of the compound in the rat liver extract was calculated.
Column: Chemcosorb 5C18-300 Å 4.6 mm diameter and 150 mm length
Colume temperature: 50° C.

For the molecule `COc1cc(-c2cnn3c(O)ncnc23)ccc1Cc1ccccc1` [Example 4, 8-(4-benzyl-3-methoxy)phenyl-4-hydroxypyrazolo[1,5-a]-1,3,5-triazine], in data set [1], the IC50 – broadly, the concentration that inhibits the measured activity by half – came out at 7.4e-08 M. Also, in data set [2], the remaining at 5 min was 56.9%, the remaining at 0.25 h worked out at 44.6%, the remaining at 0.5 h is 49.9% and the remaining at 1 h turned out to be 38.2%. Moreover, the half-life in data set [2] worked out at 30 min.
Take `CC(c1ccccc1)c1ccc(-c2cnn3c(O)ccnc23)cc1` (stereo not drawn) [Example 25, 7-hydroxy-3-[4-(α-methylbenzyl)phenyl]pyrazolo[1,5-a]pyrimidine]: the IC50 in data set [1] is 2.8e-08 M.
For `CC(c1ccccc1)c1ccc(-c2cnn3c(O)ncnc23)cc1` (stereo not drawn) [Example 19, 4-hydroxy-8-[4-(α-methylbenzyl)phenyl]pyrazolo[1,5-a]-1,3,5-triazine], the IC50 in data set [1] came to 3.9e-08 M. Besides, in data set [2], the remaining at 5 min turned out to be 94.4%, the remaining at 0.25 h was determined as 84.7%, the remaining at 0.5 h is 68.3% and the remaining at 1 h is 42.4%. Moreover, the half-life in data set [2] stood at 52 min.
With `COc1cc(-c2cnn3c(O)ncnc23)ccc1Cc1ccc(C)cc1` [Example 8], the IC50 in data set [1] was found to be 1.1e-07 M.
Same read-out and setting: the value for `CC(C)(c1ccccc1)c1ccc(-c2cnn3c(O)ccnc23)cc1` [Example 34, 7-hydroxy-3-[4-(2-phenylpropan-2-yl)phenyl]pyrazolo[1,5-a]pyrimidinie] was 9e-08 M; that for `Oc1ncnc2c(-c3ccc(Cc4ccc5c(c4)OCO5)cc3)cnn12` [Example 31, 4-hydroxy-8-[4-(3,4-methylenedioxyphenylmethyl)phenyl]pyrazolo[1,5-a]-1,3,5-triazine] was 7.5e-07 M.
Same read-out and setting: the value for `Oc1ccnc2c(-c3ccc(Cc4ccc5c(c4)OCO5)cc3)cnn12` [Example 35, 7-hydroxy-4-[4-(3,4-methylenedioxyphenylmethyl)phenyl]pyrazolo[1,5-a]pyrimidine] was 2.2e-07 M; that for `COc1cccc(C(C)c2ccc(-c3cnn4c(O)ncnc34)cc2)c1` (stereo not drawn) [Example 23, 4-hydroxy-8-{4-[1-(3-methoxyphenyl)ethan-1-yl)phenyl}pyrazolo[1,5-a]-1,3,5-triazine] was 2.6e-08 M.
Still for that read-out and setting: the value for `CC(C)(c1ccccc1)c1ccc(-c2cnn3c(O)ncnc23)cc1` [Example 33, 4-hydroxy-8-[4-(2-phenylporpan-2-yl)phenyl]pyrazolo[1,5-a]-1,3,5-triazine] was 1.2e-07 M.
Take `COc1cc(-c2cnn3c(O)ccnc23)ccc1Sc1ccccc1` [Compound B2, reference compound]: in data set [2], the remaining at 5 min turned out to be 54.3%, the remaining at 0.25 h was 32.9%, the remaining at 0.5 h worked out at 31.4% and the remaining at 1 h was determined as 24.4%. Besides, the half-life in data set [2] is 6.5 min.
For `COc1ccccc1Cc1ccc(-c2cnn3c(O)ncnc23)cc1OC` [Example 9], the half-maximal inhibitory concentration (IC50) in data set [1] was 9.5e-08 M.
On to `Cc1cccc(Cc2ccc(-c3cnn4c(O)ccnc34)cc2)c1` [Example 27, 7-hydroxy-3-[4-(3-methylphenylmethyl)phenyl]pyrazolo[1,5-a]pyrimidine], for which the IC50 in data set [1] turned out to be 8.2e-08 M.
On the same count and under the same terms, the value for `COc1ccccc1Cc1ccc(-c2cnn3c(O)ncnc23)cc1` [Example 17, 4-hydroxy-8-[4-(2-methoxyphenylmethyl)phenyl]pyrazolo[1,5-a]-1,3,5-triazine] was 8.7e-07 M; that for `CCCC(c1ccccc1)c1ccc(-c2cnn3c(O)ncnc23)cc1` (stereo not drawn) [Example 20, 4-hydroxy-8-[4-(α-propylbenzyl)phenyl]pyrazolo[1,5-a]-1,3,5-triazine] was 2e-07 M; that for `COc1cccc(Cc2ccc(-c3cnn4c(O)ccnc34)cc2C)c1` [Example 26, 7-hydroxy-3-[4-(3-methoxyphenylmethyl)-3-methyl]phenylpyrazolo[1,5-a]pyrimidine] was 1.3e-08 M.
Still for that read-out and setting: the value for `Oc1ncnc2c(-c3ccc(Cc4ccccc4)c(Cl)c3)cnn12` [Example 3, 8-(4-benzyl-3-chloro)phenyl-4-hydroxypyrazolo[1,5-a]-1,3,5-triazine] was 4e-07 M.
In the case of `COc1ccc(Cc2ccc(-c3cnn4c(O)ncnc34)cc2)cc1` [Example 18, 4-hydroxy-8-[4-(4-methoxyphenylmethyl)phenyl]pyrazolo[1,5-a]-1,3,5-triazine], in data set [2], the remaining at 5 min turned out to be 96.5%, the remaining at 0.25 h was 86.2%, the remaining at 0.5 h amounted to 71.6% and the remaining at 1 h worked out at 52.4%. Moreover, in data set [2], the half-life was over 60 min.
The matching figures for `Oc1ncnc2c(-c3ccc(Sc4ccccc4)cc3)cnn12` [Compound A1, reference compound]: 32.3%, 13.8%, 13.1%, 13% and 2.4 min.
Regarding `Cc1cccc(Cc2ccc(-c3cnn4c(O)ncnc34)cc2C)c1` [Example 29, 4-hydroxy-8-[3-methyl-4-(3-methylphenylmethyl)phenyl]pyrazolo[1,5-a]-1,3,5-triazine], the IC50 in data set [1] came out at 2e-08 M.
Turning to `Cc1cccc(Cc2ccc(-c3cnn4c(O)ccnc34)cc2C)c1` [Example 30], the 50% inhibitory concentration (IC50) in data set [1] came out at 2.5e-08 M.
For `Cc1cc(-c2cnn3c(O)ccnc23)ccc1Sc1ccccc1` [Compound B1, reference compound], in data set [2], the remaining at 5 min turned out to be 46.5%, the remaining at 0.25 h stood at 25.6%, the remaining at 0.5 h was 25.1% and the remaining at 1 h was 27%. For the same molecule, the half-life in data set [2] was determined as 4.6 min.
On the same counts, the results for `Cc1cc(-c2cnn3c(O)ncnc23)ccc1Sc1ccccc1` [Compound A2, reference compound] are 32.5%, 14.8%, 13.7%, 12.3% and 2.5 min.
In the case of `COc1cc(Cc2ccc(-c3cnn4c(O)ncnc34)cc2)cc(OC)c1` [Example 32, 4-hydroxy-8-[4-(3,5-dimethoxyphenylmethyl)phenyl]pyrazolo[1,5-a]-1,3,5-triazine], the IC50 in data set [1] worked out at 7.7e-07 M.
For `Oc1ncnc2c(-c3ccc(Cc4cccc(Cl)c4)cc3)cnn12` [Example 21, 8-[4-(3-chlorophenylmethyl)phenyl]-4-hydroxypyrazolo[1,5-a]-1,3,5-triazine], the IC50 in data set [1] was found to be 1.1e-07 M.
On the same count and under the same terms, the value for `Oc1ncnc2c(-c3ccc(Cc4ccc(Cl)cc4)cc3)cnn12` [Example 22, 8-[4-(4-chlorophenylmethyl)phenyl]-4-hydroxypyrazolo[1,5-a]-1,3,5-triazine] was 9.3e-08 M; that for `COc1cccc(Cc2ccc(-c3cnn4c(O)ccnc34)cc2OC)c1` [Example 24, 7-hydroxy-3-[3-methoxy-4-(3-methoxyphenylmethyl)phenyl]pyrazolo[1,5-a]pyrimidine] was 2.6e-08 M; that for `Cc1ccc(Cc2ccc(-c3cnn4c(O)ncnc34)cc2)cc1` [Example 16, 4-hydroxy-8-[4-(4-methylphenylmethyl)phenyl]pyrazolo[1,5-a]-1,3,5-triazine] was 3e-07 M.
Same read-out and setting: the value for `COc1cc(-c2cnn3c(O)ncnc23)ccc1Cc1ccccc1C` [Example 7] was 6.2e-08 M.
Regarding `COc1cc(-c2cnn3c(O)ncnc23)ccc1Sc1ccccc1` [Compound A3, reference compound], in data set [2], the remaining at 5 min was determined as 38.3%, the remaining at 0.25 h came out at 18.6%, the remaining at 0.5 h is 19.2% and the remaining at 1 h was 16.5%. Further, the half-life in data set [2] is 3 min.
